ChEMBL document CHEMBL4680347, “Discovery of novel 1,3,5-triazine derivatives as potent inhibitor of cervical cancer via dual inhibition of PI3K/mTOR” (Bioorg Med Chem, 2021)

Columns and labels:
[1] = target: Phosphatidylinositol 4,5-bisphosphate 3-kinase catalytic subunit alpha isoform (Homo sapiens, UniProt P42336); assay: Inhibition of PI3Kalpha (unknown origin) measured after 1 hr by ADP-glo plus luminescence assay
[2] = target: Serine/threonine-protein kinase mTOR (Homo sapiens, UniProt P42345); assay: Inhibition of mTOR (unknown origin) measured after 45 mins by LANCE Ultra assay

Chain of Phosphatidylinositol 4,5-bisphosphate 3-kinase catalytic subunit alpha isoform (P42336 whole entry, canonical isoform): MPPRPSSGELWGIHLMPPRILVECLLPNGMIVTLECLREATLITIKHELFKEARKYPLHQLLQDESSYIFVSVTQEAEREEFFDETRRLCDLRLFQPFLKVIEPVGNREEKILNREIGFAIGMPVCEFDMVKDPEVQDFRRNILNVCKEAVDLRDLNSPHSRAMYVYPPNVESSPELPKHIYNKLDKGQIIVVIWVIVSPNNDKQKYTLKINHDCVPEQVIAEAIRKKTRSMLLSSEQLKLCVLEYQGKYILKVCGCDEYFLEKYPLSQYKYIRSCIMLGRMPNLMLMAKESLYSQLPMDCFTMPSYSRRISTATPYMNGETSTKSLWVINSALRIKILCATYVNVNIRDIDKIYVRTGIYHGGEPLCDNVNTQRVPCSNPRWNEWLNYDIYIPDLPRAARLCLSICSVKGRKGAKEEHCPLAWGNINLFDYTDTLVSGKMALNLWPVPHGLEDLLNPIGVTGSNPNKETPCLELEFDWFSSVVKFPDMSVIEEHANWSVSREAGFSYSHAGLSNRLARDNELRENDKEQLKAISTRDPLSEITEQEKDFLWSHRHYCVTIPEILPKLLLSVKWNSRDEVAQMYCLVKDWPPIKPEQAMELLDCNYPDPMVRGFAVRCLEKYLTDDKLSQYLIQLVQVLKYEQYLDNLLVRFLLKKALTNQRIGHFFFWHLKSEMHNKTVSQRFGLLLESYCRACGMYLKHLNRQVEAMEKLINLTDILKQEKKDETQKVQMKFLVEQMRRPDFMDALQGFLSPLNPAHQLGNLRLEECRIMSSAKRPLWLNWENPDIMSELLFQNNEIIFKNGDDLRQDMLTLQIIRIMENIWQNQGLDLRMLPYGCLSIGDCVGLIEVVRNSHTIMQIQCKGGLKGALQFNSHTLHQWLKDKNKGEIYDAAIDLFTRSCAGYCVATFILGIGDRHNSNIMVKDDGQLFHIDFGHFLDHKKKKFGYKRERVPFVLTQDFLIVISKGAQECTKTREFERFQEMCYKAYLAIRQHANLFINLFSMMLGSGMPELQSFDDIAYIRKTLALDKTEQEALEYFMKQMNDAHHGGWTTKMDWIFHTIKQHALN

SMILES	IC50 [1] [µM]	IC50 [2] [µM]
Cc1cccc(S(=O)(=O)N2CCN(c3nc(NCCN4CCOCC4)nc(N4CCOCC4)n3)CC2)c1	0.0187	
O=S(=O)(c1ccccc1F)N1CCN(c2nc(NCCN3CCOCC3)nc(N3CCOCC3)n2)CC1	0.123	0.0983
O=S(=O)(c1ccc(F)cc1)N1CCN(c2nc(NCCN3CCOCC3)nc(N3CCOCC3)n2)CC1	0.088	0.0353
O=S(=O)(c1cccc(O)c1)N1CCN(c2nc(NCCN3CCOCC3)nc(N3CCOCC3)n2)CC1	0.0156	0.0218
O=S(=O)(c1cccc(Cl)c1)N1CCN(c2nc(NCCN3CCOCC3)nc(N3CCOCC3)n2)CC1	0.0375	
O=S(=O)(c1ccc(Cl)cc1)N1CCN(c2nc(NCCN3CCOCC3)nc(N3CCOCC3)n2)CC1	0.0309	0.0282
O=S(=O)(c1ccccc1)N1CCN(c2nc(NCCN3CCOCC3)nc(N3CCOCC3)n2)CC1	0.0406	0.0704
COc1cccc(S(=O)(=O)N2CCN(c3nc(NCCN4CCOCC4)nc(N4CCOCC4)n3)CC2)c1	0.0246	0.0222
Cc1ccc(S(=O)(=O)N2CCN(c3nc(NCCN4CCOCC4)nc(N4CCOCC4)n3)CC2)cc1	0.00603	0.0128
